Where two headings read alike, the source gives them in different places. Each block holds one compound with its values, some of them ahead of it.
Assay: solubility of paclitaxel in olive oil, castor oil and hydrophobic excipients (crystal formation after drying)
Format: physicochemical
Method: The specific experimental method was as follows. […] The chloroform solution was mixed with 0.5 ml of chloroform, from which 0.5 ml of diluent was taken and two-fold serial dilution was performed by using chloroform. Then 0.5 ml of a chloroform solution of paclitaxel (10 mg/ml) was added to the above-mentioned sample after the two-fold serial dilution, and then left in a hood to be naturally volatilized overnight. Crystal formation in the dried sample was observed and recorded.

solubility of paclitaxel (crystal formation in the dried sample): +
Compound: castor oil

Compound: CCCCCCCC/C=C\CCCCCCCCNC(=O)CC[C@@H](C)[C@H]1CC[C@H]2[C@@H]3[C@H](OC(=O)CNC(=O)[C@H](CCCCNC(=O)OC(C)(C)C)NC(=O)OCC4c5ccccc5-c5ccccc54)C[C@@H]4C[C@H](OC(=O)CNC(=O)[C@H](CCCCNC(=O)OC(C)(C)C)NC(=O)OCC5c6ccccc6-c6ccccc65)CC[C@]4(C)[C@H]3C[C@H](OC(=O)CNC(=O)[C@H](CCCCNC(=O)OC(C)(C)C)NC(=O)OCC3c4ccccc4-c4ccccc43)[C@]12C [Example 4]
solubility of paclitaxel compared with olive oil and castor oil (data comparison in table 1): greater than that in olive oil and castor oil | solubility of paclitaxel (crystal formation in the dried sample) (hydrophobic excipient 0.98 mg, 0.5 ml chloroform solution of paclitaxel (10 mg/ml), volatilized overnight): + | solubility of paclitaxel (crystal formation in the dried sample) (hydrophobic excipient 1.95 mg, 0.5 ml chloroform solution of paclitaxel (10 mg/ml), volatilized overnight): + | solubility of paclitaxel (crystal formation in the dried sample) (hydrophobic excipient 3.90 mg, 0.5 ml chloroform solution of paclitaxel (10 mg/ml), volatilized overnight): + | solubility of paclitaxel (crystal formation in the dried sample) (hydrophobic excipient 7.81 mg, 0.5 ml chloroform solution of paclitaxel (10 mg/ml), volatilized overnight): +/− | solubility of paclitaxel (crystal formation in the dried sample) (hydrophobic excipient 15.65 mg, 0.5 ml chloroform solution of paclitaxel (10 mg/ml), volatilized overnight): − | solubility of paclitaxel (crystal formation in the dried sample) (hydrophobic excipient 31.30 mg, 0.5 ml chloroform solution of paclitaxel (10 mg/ml), volatilized overnight): − | solubility of paclitaxel (crystal formation in the dried sample) (hydrophobic excipient 62.50 mg, 0.5 ml chloroform solution of paclitaxel (10 mg/ml), volatilized overnight): − | solubility of paclitaxel (crystal formation in the dried sample) (hydrophobic excipient 125.00 mg, 0.5 ml chloroform solution of paclitaxel (10 mg/ml), volatilized overnight): − | solubility of paclitaxel (crystal formation in the dried sample) (hydrophobic excipient 250.00 mg, 0.5 ml chloroform solution of paclitaxel (10 mg/ml), volatilized overnight): −

— US12616676B2, “Preparation method and use of modified hydrophobic excipient” (ZHEJIANG ZHIDA PHARMACEUTICAL CO., LTD., priority 2019, dated 2026)
